Data on eleven compounds can be found in patent US10941158B2, “Pyrazole ACC inhibitors and uses thereof” (Gilead Apollo, LLC, priority 2015, dated 2021).

The subject of one assay is C. albicans ATCC 90028. As to the kind of experiment: Anti-Fungal (Candida) Activity Assay, broth microtiter MIC. Format: cell-based. The conditions noted are these: ATCC90028, 3 replicates, MIC recorded at 48 h, read-out: MIC C. albicans ATCC 90028. The method, boiled down:
(§1)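 Following CLSI M27-A3 broth microdilution, direct colony suspensions in RPMI 1640+MOPS were challenged with compounds. MICs were read visually against the growth control after 48 h.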

The subject of assay [1] is C. parapsilosis ATCC 22019. The description is as above. The assay is classed as cell-based. The conditions noted are these: Lodderomyces parapsilosis, ATCC22019; 3 replicates, MIC recorded at 48 h; read-out: MIC C. parapsilosis ATCC 22019. The procedure, abridged:
as §1

The test system of a further assay is C. krusei ATCC 6258. The description is as above. The assay is classed as cell-based. The conditions noted are these: Pichia kudriavzevii, ATCC6258; 3 replicates, MIC recorded at 48 h; read-out: MIC C. krusei ATCC 6258. The procedure, abridged: as §1
The target in the next assay is human (hACC2) ACC2 (Homo sapiens, UniProt O00763). Kind of assay: In vitro Acetyl-CoA Carboxylase (ACC) inhibition assay (ADP-Glo), hACC2. Format: biochemical. The protocol:
The detailed procedure is as follows. […] 10 μL ADP glo reagent was added. […] 20 μL kinase detection reagent was added.
“NA” stands for “not assayed.”
(In general: ADP-Glo first removes unused ATP, then detects ADP through luciferase.)

A further assay concerns the target fungal (fACC2) ACC2 (UniProt Q00955). The conditions noted are these: read-out: fACC2 IC50; fungal ACC2, ADP-Glo.

Converted amounts (≈) assume the structure as drawn.

Sequence of human (hACC2) ACC2 (O00763 whole entry): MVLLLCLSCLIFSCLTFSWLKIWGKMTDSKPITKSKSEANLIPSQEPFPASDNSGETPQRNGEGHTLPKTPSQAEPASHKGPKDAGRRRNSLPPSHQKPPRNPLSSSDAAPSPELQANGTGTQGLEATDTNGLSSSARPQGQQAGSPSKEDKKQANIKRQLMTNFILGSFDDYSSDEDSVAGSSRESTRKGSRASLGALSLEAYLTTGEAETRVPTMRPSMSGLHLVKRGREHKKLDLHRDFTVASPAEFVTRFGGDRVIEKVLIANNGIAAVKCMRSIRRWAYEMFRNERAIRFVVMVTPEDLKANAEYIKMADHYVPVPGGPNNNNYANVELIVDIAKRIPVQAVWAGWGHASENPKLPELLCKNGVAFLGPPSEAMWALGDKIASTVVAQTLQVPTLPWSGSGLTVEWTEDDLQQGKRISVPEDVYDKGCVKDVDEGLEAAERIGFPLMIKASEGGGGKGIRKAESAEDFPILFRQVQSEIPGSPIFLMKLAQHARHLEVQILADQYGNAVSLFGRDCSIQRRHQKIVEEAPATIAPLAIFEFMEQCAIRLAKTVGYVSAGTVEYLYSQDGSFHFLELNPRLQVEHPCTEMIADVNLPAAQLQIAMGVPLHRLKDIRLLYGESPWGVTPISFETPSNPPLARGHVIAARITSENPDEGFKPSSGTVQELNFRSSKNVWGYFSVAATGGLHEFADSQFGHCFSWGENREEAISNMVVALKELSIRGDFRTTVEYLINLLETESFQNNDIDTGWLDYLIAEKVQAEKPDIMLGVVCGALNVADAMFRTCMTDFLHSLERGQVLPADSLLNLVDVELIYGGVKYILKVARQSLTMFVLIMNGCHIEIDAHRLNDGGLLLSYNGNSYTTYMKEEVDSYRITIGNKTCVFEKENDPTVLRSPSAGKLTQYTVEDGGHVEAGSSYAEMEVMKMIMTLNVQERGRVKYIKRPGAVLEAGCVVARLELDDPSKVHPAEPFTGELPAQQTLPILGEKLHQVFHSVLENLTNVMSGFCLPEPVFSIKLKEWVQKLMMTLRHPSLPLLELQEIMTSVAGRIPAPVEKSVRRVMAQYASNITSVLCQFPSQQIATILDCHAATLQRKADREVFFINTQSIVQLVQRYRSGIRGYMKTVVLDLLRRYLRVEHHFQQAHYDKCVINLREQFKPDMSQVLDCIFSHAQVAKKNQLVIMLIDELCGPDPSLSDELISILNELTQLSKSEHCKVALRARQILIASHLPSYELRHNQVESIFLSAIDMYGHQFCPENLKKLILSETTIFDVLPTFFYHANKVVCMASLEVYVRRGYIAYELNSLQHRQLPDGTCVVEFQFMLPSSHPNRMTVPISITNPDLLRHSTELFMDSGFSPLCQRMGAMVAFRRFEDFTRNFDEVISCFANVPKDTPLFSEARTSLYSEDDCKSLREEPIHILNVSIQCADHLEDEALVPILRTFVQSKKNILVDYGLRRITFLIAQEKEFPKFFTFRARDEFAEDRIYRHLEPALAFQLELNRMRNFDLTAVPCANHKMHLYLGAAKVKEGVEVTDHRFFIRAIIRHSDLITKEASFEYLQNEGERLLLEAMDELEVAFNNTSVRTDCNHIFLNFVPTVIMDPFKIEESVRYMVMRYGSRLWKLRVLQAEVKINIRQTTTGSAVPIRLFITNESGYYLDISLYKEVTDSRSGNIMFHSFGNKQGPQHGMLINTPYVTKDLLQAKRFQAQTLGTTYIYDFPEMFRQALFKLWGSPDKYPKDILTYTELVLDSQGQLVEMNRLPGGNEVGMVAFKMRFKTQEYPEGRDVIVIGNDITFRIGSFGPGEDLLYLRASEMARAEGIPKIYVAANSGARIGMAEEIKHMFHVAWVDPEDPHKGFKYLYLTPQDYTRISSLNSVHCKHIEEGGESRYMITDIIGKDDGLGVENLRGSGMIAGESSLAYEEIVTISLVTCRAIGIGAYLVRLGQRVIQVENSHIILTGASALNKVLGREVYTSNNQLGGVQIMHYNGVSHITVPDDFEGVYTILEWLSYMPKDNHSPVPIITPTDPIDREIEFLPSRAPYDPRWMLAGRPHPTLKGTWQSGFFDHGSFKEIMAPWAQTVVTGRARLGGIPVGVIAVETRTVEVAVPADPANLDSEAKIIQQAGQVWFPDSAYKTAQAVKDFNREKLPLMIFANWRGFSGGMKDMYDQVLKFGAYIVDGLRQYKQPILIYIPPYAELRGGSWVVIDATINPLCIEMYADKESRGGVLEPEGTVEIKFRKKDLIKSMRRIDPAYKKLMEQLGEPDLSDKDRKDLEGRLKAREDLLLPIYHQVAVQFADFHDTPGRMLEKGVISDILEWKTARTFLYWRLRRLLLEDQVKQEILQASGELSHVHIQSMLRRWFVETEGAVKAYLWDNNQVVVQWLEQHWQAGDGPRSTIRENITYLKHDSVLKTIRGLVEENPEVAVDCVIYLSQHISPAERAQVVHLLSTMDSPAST
Sequence of fungal (fACC2) ACC2 (Q00955 whole entry): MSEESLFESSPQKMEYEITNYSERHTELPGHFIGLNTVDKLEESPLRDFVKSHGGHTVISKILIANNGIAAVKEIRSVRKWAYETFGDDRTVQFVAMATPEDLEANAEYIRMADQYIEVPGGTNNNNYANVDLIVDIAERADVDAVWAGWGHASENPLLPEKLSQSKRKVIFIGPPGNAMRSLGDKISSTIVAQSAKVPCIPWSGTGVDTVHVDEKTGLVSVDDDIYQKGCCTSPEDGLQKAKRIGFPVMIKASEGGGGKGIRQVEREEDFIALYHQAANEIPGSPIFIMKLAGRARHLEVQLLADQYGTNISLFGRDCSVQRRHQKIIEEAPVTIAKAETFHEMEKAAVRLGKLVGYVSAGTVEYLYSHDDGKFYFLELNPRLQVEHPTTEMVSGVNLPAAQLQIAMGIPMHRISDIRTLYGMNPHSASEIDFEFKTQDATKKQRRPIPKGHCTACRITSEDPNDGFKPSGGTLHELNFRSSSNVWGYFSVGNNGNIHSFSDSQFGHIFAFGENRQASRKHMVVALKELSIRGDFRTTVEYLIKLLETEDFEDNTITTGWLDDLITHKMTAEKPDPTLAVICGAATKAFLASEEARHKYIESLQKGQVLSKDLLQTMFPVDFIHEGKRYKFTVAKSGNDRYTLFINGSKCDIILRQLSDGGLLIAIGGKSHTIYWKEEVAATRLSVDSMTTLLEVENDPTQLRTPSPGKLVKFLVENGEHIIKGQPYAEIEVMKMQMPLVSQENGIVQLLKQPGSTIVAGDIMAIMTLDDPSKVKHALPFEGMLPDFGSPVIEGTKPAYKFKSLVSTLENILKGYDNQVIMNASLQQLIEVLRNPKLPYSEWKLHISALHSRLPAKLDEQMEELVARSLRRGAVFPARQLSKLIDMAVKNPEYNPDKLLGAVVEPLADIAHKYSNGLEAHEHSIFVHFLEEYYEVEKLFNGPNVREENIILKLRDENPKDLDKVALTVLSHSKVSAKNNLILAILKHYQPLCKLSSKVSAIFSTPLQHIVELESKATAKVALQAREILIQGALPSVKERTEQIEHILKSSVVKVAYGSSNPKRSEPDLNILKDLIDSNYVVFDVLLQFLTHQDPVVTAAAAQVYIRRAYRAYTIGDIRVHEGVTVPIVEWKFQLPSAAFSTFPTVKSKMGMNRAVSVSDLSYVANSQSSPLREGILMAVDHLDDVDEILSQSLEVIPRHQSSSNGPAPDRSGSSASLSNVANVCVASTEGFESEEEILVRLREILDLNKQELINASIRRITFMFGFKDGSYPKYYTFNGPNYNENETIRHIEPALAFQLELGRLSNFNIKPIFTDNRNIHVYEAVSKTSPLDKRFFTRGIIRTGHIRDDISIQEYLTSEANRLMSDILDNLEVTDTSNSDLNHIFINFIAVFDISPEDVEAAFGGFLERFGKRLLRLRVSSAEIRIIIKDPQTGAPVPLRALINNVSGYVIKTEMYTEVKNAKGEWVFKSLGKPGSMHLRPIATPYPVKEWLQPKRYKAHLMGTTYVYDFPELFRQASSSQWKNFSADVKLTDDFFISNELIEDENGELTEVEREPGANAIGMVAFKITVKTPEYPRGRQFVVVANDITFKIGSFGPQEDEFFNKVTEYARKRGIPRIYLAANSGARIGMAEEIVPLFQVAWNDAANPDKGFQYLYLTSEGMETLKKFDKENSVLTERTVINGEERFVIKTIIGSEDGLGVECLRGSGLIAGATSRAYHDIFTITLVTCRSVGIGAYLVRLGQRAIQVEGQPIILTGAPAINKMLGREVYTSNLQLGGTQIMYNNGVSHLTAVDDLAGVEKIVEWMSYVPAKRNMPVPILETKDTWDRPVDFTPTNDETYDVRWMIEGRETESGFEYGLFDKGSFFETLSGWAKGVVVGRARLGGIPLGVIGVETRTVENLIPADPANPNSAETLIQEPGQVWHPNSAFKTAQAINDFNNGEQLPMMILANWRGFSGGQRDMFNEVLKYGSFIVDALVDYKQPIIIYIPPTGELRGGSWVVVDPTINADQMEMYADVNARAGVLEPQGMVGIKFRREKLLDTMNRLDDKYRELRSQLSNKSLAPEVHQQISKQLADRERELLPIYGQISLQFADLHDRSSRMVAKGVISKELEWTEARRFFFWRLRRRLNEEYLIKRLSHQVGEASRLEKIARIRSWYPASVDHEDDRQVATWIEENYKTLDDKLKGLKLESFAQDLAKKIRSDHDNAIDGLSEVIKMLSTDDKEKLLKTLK

The MIC is the smallest concentration in the dilution series that meets the test's criterion for growth inhibition. In general, IC50 refers to the midpoint of a concentration-inhibition curve. On to `COCCCO[C@@H](Cn1c(=O)n(C(C)C(=O)NC(C)C)c(=O)c2c(C)c(-n3cccn3)sc21)c1cc(F)ccc1OC` (stereo partly shown) [Compound I-69], for which the MIC (in the assay on C. albicans ATCC 90028; in assay [1]; with C. krusei ATCC 6258) was over 4.1 µg/mL in each case. Further, the figures for the IC50 at human (hACC2) ACC2 and on fungal (fACC2) ACC2 were 10 to 40 nM and 0.6 to 3 nM, respectively.

In the case of `COc1ccccc1[C@H](Cn1c(=O)n(C(C)(C)C(=O)O)c(=O)c2c(C)c(-n3cccn3)sc21)OC1CCOCC1` [Compound I-71], the MIC (in the assay on C. albicans ATCC 90028; in assay [1]; with C. krusei ATCC 6258) was over 4.1 µg/mL in each case. Moreover, the half-inhibitory concentration (IC50) at human (hACC2) ACC2 is 10 to 40 nM; on fungal (fACC2) ACC2, 0.6 to 3 nM.

On to `COc1ccc(F)cc1[C@H](Cn1c(=O)n(C(C)C(N)=O)c(=O)c2c(C)c(-n3cccn3)sc21)OCC(C)(C)O` (stereo partly shown) [Compound I-68], for which the MIC (in the assay with C. albicans ATCC 90028; in assay [1]; in the assay with C. krusei ATCC 6258) was over 4.1 µg/mL in each case. The IC50 was in the range of 10 to 40 nM on human (hACC2) ACC2 and 0.6 to 3 nM at fungal (fACC2) ACC2.

With `COCCOc1ccc(F)cc1[C@H](Cn1c(=O)n(C(C)(C)C(N)=O)c(=O)c2c(C)c(-n3cccn3)sc21)OC(C)C` [Compound I-63], the MIC (with C. albicans ATCC 90028; in assay [1]; in the assay with C. krusei ATCC 6258) was over 4.1 µg/mL throughout. In addition, the IC50 on human (hACC2) ACC2 was 3 to 10 nM; at fungal (fACC2) ACC2, 0.6 to 3 nM.

As for `COc1ccc(F)cc1[C@H](Cn1c(=O)n(C(C)C(=O)NC(C)C)c(=O)c2c(C)c(-n3cccn3)sc21)OCCO` (stereo partly shown) [Compound I-59], the MIC (with C. albicans ATCC 90028; in assay [1]; with C. krusei ATCC 6258) was over 4.1 µg/mL throughout. The figures for the IC50 against human (hACC2) ACC2 and on fungal (fACC2) ACC2 were 3 to 10 nM and 0.6 to 3 nM, respectively.

With `COCCO[C@@H](Cn1c(=O)n([C@@H](C)C(=O)NC(C)C)c(=O)c2c(C)c(-n3cccn3)sc21)c1cc(F)ccc1OC` [Compound I-73, (S)-2-(1-((R)-2-(5-fluoro-2-methoxyphenyl)-2-(2-methoxy-ethoxy)ethyl)-5-methyl-2,4-dioxo-6-(1H-pyrazol-1-yl)-1,4-dihydrothieno[2,3-d]pyrimidin-3(2H)-yl)-N-isopropylpropanamide], the MIC is 2.1 to 4 µg/mL (≈ 3.57 to 6.81 µM) in the assay with C. albicans ATCC 90028, 2.1 to 4 µg/mL (≈ 3.57 to 6.81 µM) in assay [1] and over 4.1 µg/mL with C. krusei ATCC 6258. Moreover, the IC50 fell in the range of 3 to 10 nM at human (hACC2) ACC2 and 0.6 to 3 nM at fungal (fACC2) ACC2.

For `COCCO[C@@H](Cn1c(=O)n([C@H](C)C(=O)NC(C)C)c(=O)c2c(C)c(-n3cccn3)sc21)c1cc(F)ccc1OC` [Compound I-74, (R)-2-(1-((R)-2-(5-fluoro-2-methoxyphenyl)-2-(2-methoxy-ethoxy)ethyl)-5-methyl-2,4-dioxo-6-(1H-pyrazol-1-yl)-1,4-dihydrothieno[2,3-d]pyrimidin-3(2H)-yl)-N-isopropylpropanamide], the MIC (with C. albicans ATCC 90028; in assay [1]; with C. krusei ATCC 6258) was over 4.1 µg/mL in each case. Also, the IC50 against human (hACC2) ACC2 was over 40 nM; on fungal (fACC2) ACC2, 10 to 40 nM.

Turning to `COc1ccc(F)cc1[C@H](Cn1c(=O)n(C(C)C(=O)O)c(=O)c2c(C)c(-n3cccn3)sc21)OCC(C)(C)O` (stereo partly shown) [Compound I-62], the MIC (in the assay on C. albicans ATCC 90028; in assay [1]; in the assay on C. krusei ATCC 6258) was over 4.1 µg/mL throughout. The figures for the IC50 on human (hACC2) ACC2 and at fungal (fACC2) ACC2 were 3 to 10 nM and 0.6 to 3 nM, respectively.

On to `Cc1c(-n2cccn2)sc2c1c(=O)n(C(C)(C)C(=O)NC(C)C)c(=O)n2C[C@H](OC1CCOCC1)c1cc(F)ccc1OCCO` [Compound I-48], for which the MIC (in the assay with C. albicans ATCC 90028; in assay [1]; in the assay on C. krusei ATCC 6258) was over 4.1 µg/mL throughout. Besides, the values for the half-maximal inhibitory concentration (IC50) at human (hACC2) ACC2 and on fungal (fACC2) ACC2 were 3 to 10 nM and 0.6 to 3 nM, respectively.

For the compound `Cc1c(-n2cccn2)sc2c1c(=O)n(C(C)(C)C(=O)N1CCCC1)c(=O)n2C[C@H](OC1CCOCC1)c1cc(F)ccc1OCCO` [Compound I-51], the values for the MIC (in the assay on C. albicans ATCC 90028; in assay [1]; in the assay on C. krusei ATCC 6258) were 1.1 to 2 µg/mL (≈ 1.64 to 2.99 µM), 2.1 to 4 µg/mL (≈ 3.14 to 5.97 µM) and 0.25 to 1 µg/mL (≈ 0.373 to 1.49 µM), respectively. Moreover, the IC50 lay in the range of 3 to 10 nM against human (hACC2) ACC2 and 0.6 to 3 nM on fungal (fACC2) ACC2.

Take `COCCO[C@@H](Cn1c(=O)n(C(C)C(=O)N2CCCC2)c(=O)c2c(C)c(-n3cccn3)sc21)c1cc(F)ccc1OC` (mixture of isomers) [Compound I-54, 1-((R)-2-(5-fluoro-2-methoxyphenyl)-2-(2-methoxyethoxy)ethyl)-5-methyl-3-(1-oxo-1-(pyrrolidin-1-yl)propan-2-yl)-6-(1H-pyrazol-1-yl)thieno[2,3-d]pyrimidine-2,4(1H,3H)-dione]: the MIC (in the assay with C. albicans ATCC 90028; in assay [1]; with C. krusei ATCC 6258) was over 4.1 µg/mL throughout. Besides, the half-maximal inhibitory concentration (IC50) at human (hACC2) ACC2 lay within 10 to 40 nM; at fungal (fACC2) ACC2 it was 0.6 to 3 nM.
